{"source": "patent US20110129542A1", "about": "“SUBSTITUTED AZEPINE- AND DIAZEPINE-SULFONAMIDES USEFUL TO INHIBIT 11BETA-HYDROXYSTEROID DEHYDROGENASE TYPE-1” (Schering Corporation, priority 2007, published 2011)", "key": {"[1]": {"biological_target": "Mouse 11-β-HSD1 (Mus musculus, UniProt P50172)", "sequence (P50172 whole entry)": "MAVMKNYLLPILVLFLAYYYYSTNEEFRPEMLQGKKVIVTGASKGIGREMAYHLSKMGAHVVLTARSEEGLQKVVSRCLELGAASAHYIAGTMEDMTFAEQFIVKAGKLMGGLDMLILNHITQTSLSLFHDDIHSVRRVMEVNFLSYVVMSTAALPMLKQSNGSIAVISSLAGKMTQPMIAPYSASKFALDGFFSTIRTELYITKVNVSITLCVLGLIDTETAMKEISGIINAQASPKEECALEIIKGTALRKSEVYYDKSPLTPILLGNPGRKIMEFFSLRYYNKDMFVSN", "test": "Measurement of 11β-HSD1 activity (SPA, 3H-cortisone, membrane), mouse enzyme", "format": "biochemical", "details": "125 nM 3H-cortisone, 3 mM NADPH, 0.5 μg membrane, room temperature 1 hr", "experimental": "(§1) Measurement of 11β-HSD1 activity\n(§2) The reaction was incubated at room temperature for 1 hr before it was stopped by addition of […] containing 20 mM NaPO4 pH 7.5, 30 μM 18β-glycyrrhetinic acid, 1 μg/ml monoclonal anti-cortisol antibody (Biosource) and 2 mg/ml anti-mouse antibody coated scintillation proximity assay (SPA) beads (Amersham Bioscience). The mixture was incubated at room temperature for 2 hrs with vigorous shaking and analyzed on TopCount scintillation counter."}, "[2]": {"biological_target": "Human 11-β-HSD1 (Homo sapiens, UniProt P28845)", "sequence (P28845 whole entry)": "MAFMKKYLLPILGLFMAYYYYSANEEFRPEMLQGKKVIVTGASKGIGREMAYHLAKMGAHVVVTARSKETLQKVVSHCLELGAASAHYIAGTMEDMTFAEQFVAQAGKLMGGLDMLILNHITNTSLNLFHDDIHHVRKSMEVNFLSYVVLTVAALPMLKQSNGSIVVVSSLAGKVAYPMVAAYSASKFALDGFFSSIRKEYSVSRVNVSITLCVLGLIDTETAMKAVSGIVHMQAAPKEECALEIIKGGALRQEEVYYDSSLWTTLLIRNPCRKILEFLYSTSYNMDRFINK", "test": "Measurement of 11β-HSD1 activity (SPA, 3H-cortisone, membrane), human enzyme", "format": "biochemical", "details": "125 nM 3H-cortisone, 3 mM NADPH, 0.5 μg membrane, room temperature 1 hr", "experimental": "as §1, §2"}}, "data": [{"smiles": "CC(C)(C)c1ccc(S(=O)(=O)N2CCCN(C3CCCC3)CC2)cc1", "note": "[Compound 43]", "values": [{"measurement": "IC50", "setting": "[1]", "value": 263, "unit": "nM"}, {"measurement": "IC50", "setting": "[2]", "value": 30, "unit": "nM"}]}, {"smiles": "COc1ccc(S(=O)(=O)N2CCC=C(c3ccccc3)CC2)cc1", "note": "[Compound 34]", "values": [{"measurement": "IC50", "setting": "[1]", "value": 1880, "unit": "nM"}, {"measurement": "IC50", "setting": "[2]", "value": 58, "unit": "nM"}]}, {"smiles": "O=S(=O)(c1ccc(Cl)cc1)N1CCCC(O)(c2ccccc2)CC1", "note": "(centres unmarked) [Compound 6]", "values": [{"measurement": "IC50", "setting": "[1]", "value": 2720, "unit": "nM"}, {"measurement": "IC50", "setting": "[2]", "value": 1070, "unit": "nM"}]}, {"smiles": "CC(=O)N1CCCN(S(=O)(=O)c2ccc(C(C)(C)C)cc2)CC1", "note": "[Compound 44]", "values": [{"measurement": "IC50", "setting": "[1]", "value": 2540, "unit": "nM"}, {"measurement": "IC50", "setting": "[2]", "value": 254, "unit": "nM"}]}, {"smiles": "CC(C)(C)c1ccc(S(=O)(=O)N2CCCN(C3CC4CCC3C4)CC2)cc1", "note": "(centres unmarked) [Compound 47]", "values": [{"measurement": "IC50", "setting": "[1]", "value": 102, "unit": "nM"}, {"measurement": "IC50", "setting": "[2]", "value": 19, "unit": "nM"}]}, {"smiles": "CC(C)(C)OC(=O)N1CCCN(S(=O)(=O)c2ccc(C(C)(C)C)cc2)CC1", "note": "[Compound 46]", "values": [{"measurement": "IC50", "setting": "[1]", "value": 2760, "unit": "nM"}, {"measurement": "IC50", "setting": "[2]", "value": 256, "unit": "nM"}]}, {"smiles": "COC1CCCN(S(=O)(=O)c2ccc(C(C)(C)C)cc2)CC1", "note": "(centres unmarked) [Compound 12]", "values": [{"measurement": "IC50", "setting": "[1]", "value": 165, "unit": "nM"}, {"measurement": "IC50", "setting": "[2]", "value": 7, "unit": "nM"}]}, {"smiles": "COc1ccc(S(=O)(=O)N2CCCC(O)(c3ccccc3)CC2)cc1", "note": "(centres unmarked) [Compound 1]", "values": [{"measurement": "IC50", "setting": "[1]", "value": 1980, "unit": "nM"}, {"measurement": "IC50", "setting": "[2]", "value": 1320, "unit": "nM"}]}, {"smiles": "CC(C)(C)c1ccc(S(=O)(=O)N2CCCC(O)CC2)cc1", "note": "(centres unmarked) [Compound 11]", "values": [{"measurement": "IC50", "setting": "[1]", "value": 629, "unit": "nM"}, {"measurement": "IC50", "setting": "[2]", "value": 466, "unit": "nM"}]}, {"smiles": "CC(=O)c1ccc(S(=O)(=O)N2CCCC(C)(O)CC2)cc1", "note": "(centres unmarked) [Compound 29]", "values": [{"measurement": "IC50", "setting": "[1]", "value": "> 10000", "unit": "nM"}, {"measurement": "IC50", "setting": "[2]", "value": 5250, "unit": "nM"}]}, {"smiles": "COc1ccc(S(=O)(=O)N2CC=C(c3ccccc3)CCC2)cc1", "note": "[Compound 40]", "values": [{"measurement": "IC50", "setting": "[1]", "value": 1550, "unit": "nM"}, {"measurement": "IC50", "setting": "[2]", "value": 178, "unit": "nM"}]}, {"smiles": "CC(C)(C)c1ccc(S(=O)(=O)N2CCCNCC2)cc1", "note": "[Compound 45]", "values": [{"measurement": "IC50", "setting": "[1]", "value": 2300, "unit": "nM"}, {"measurement": "IC50", "setting": "[2]", "value": 3740, "unit": "nM"}]}, {"smiles": "COC1(C)CCCN(S(=O)(=O)c2ccc(C(C)(C)C)cc2)CC1", "note": "(centres unmarked) [Compound 18]", "values": [{"measurement": "IC50", "setting": "[1]", "value": 57, "unit": "nM"}, {"measurement": "IC50", "setting": "[2]", "value": 3, "unit": "nM"}]}]}
